Measured values reported in ChEMBL document CHEMBL3217680, “Synthesis and antiproliferative activity of some 3-(pyrid-2-yl)-pyrazolines” (Medchemcomm, 2013).
Active and inactive are the calls of the source. No cut-off for these calls is given here.

Columns and labels:
MDA-MB-231 [1] = test: Antiproliferative activity against human MDA-MB-231 cells by MTS assay; type: functional, cell-based
HT-29 [2] = test: Antiproliferative activity against human HT-29 cells by MTS assay; type: functional, cell-based
HT-29 [3] = test: Inhibition of microtubule formation in human HT-29 cells at 100 nM using Dm1a tubulin antibodies by confocal microscopy; type: cell-based
Tubulin (Homo sapiens) [4] = molecular target: T1, Tubulin (Homo sapiens) (UniProt P68371+Q9H4B7+P0DPH7+P68366+Q13509+Q71U36+P04350+Q3ZCM7+P07437+P68363+Q9BQE3+Q6PEY2+Q13885+Q9BVA1+Q9BUF5); test: Induction of tubulin (unknown origin) polymerization at 5 uM; type: protein-complex assay
HT-29 [5] = test: Inhibition of microtubule formation in human HT-29 cells at 5 uM using Dm1a tubulin antibodies by confocal microscopy; type: cell-based
Tubulin (Homo sapiens) [6] = molecular target: T1, Tubulin (Homo sapiens); test: Inhibition of tubulin (unknown origin) polymerization at 20 uM; type: protein-complex assay
HT-29 [7] = test: Cell cycle arrest in human HT-29 cells assessed as accumulation at G2/M phase at 5 uM by […]propidium iodide staining-based FACS analysis (reference value: 22.8 %); type: functional
HT-29 [8] = test: Cell cycle arrest in human HT-29 cells assessed as accumulation at S phase at 5 uM by […]propidium iodide staining-based FACS analysis (reference value: 13.6 %); type: functional
HT-29 [9] = test: Cell cycle arrest in human HT-29 cells assessed as accumulation at G1 phase at 5 uM by […]propidium iodide staining-based FACS analysis (reference value: 60.2 %); type: functional
HT-29 [10] = test: Cell cycle arrest in human HT-29 cells assessed as accumulation at G2/M phase at 1 uM by […]propidium iodide staining-based FACS analysis (reference value: 22.8 %); type: functional
HT-29 [11] = test: Cell cycle arrest in human HT-29 cells assessed as accumulation at S phase at 1 uM by […]propidium iodide staining-based FACS analysis (reference value: 13.6 %); type: functional
HT-29 [12] = test: Cell cycle arrest in human HT-29 cells assessed as accumulation at G1 phase at 1 uM by […]propidium iodide staining-based FACS analysis (reference value: 60.2 %); type: functional
HT-29 [13] = test: Cell cycle arrest in human HT-29 cells assessed as accumulation at G2/M phase at 100 nM by […]propidium iodide staining-based FACS analysis (reference value: 22.8 %); type: functional
HT-29 [14] = test: Cell cycle arrest in human HT-29 cells assessed as accumulation at S phase at 100 nM by […]propidium iodide staining-based FACS analysis (reference value: 13.6 %); type: functional
HT-29 [15] = test: Cell cycle arrest in human HT-29 cells assessed as accumulation at G1 phase at 100 nM by […]propidium iodide staining-based FACS analysis (reference value: 60.2 %); type: functional
MDA-MB-468 = test: Growth inhibition of human MDA-MB-468 cells; type: functional
[16] = Growth inhibition of human BT549 cells; type: functional; details: BT-549
T47D = test: Growth inhibition of human T47D cells; type: functional
MCF7 = test: Growth inhibition of human MCF7 cells; type: functional
MDA-MB-231 [17] = test: Growth inhibition of human MDA-MB-231 cells; type: functional
[18] = Growth inhibition of human Hs 578T cells; type: functional
PC-3 = test: Growth inhibition of human PC3 cells; type: functional
DU-145 = test: Growth inhibition of human DU145 cells; type: functional
TK-10 = test: Growth inhibition of human TK10 cells; type: functional
[19] = Growth inhibition of human UO31 cells; type: functional; details: UO-31
CAKI-1 = test: Growth inhibition of human CAKI-1 cells; type: functional
[20] = Growth inhibition of human RXF393 cells; type: functional; details: RXF 393
SN12C = test: Growth inhibition of human SN12C cells; type: functional
A498 = test: Growth inhibition of human A498 cells; type: functional
ACHN = test: Growth inhibition of human ACHN cells; type: functional
SK-OV-3 = test: Growth inhibition of human SKOV3 cells; type: functional
786-0 = test: Growth inhibition of human 786-0 cells; type: functional
[21] = Growth inhibition of human OVCAR5 cells; type: functional; details: OVCAR-5
[22] = Growth inhibition of human OVCAR8 cells; type: functional; details: OVCAR-8
[23] = Growth inhibition of human NCI-ADR-RES cells; type: functional
[24] = Growth inhibition of human OVCAR3 cells; type: functional; details: OVCAR-3
[25] = Growth inhibition of human OVCAR4 cells; type: functional; details: OVCAR-4
[26] = Growth inhibition of human UACC62 cells; type: functional; details: UACC-62
IGROV-1 = test: Growth inhibition of human IGROV1 cells; type: functional
SK-MEL-28 = test: Growth inhibition of human SK-MEL-28 cells; type: functional
SK-MEL-5 = test: Growth inhibition of human SK-MEL-5 cells; type: functional
[27] = Growth inhibition of human UACC257 cells; type: functional; details: UACC-257
MDA-MB-435 = test: Growth inhibition of human MDA-MB-435 cells; type: functional
SK-MEL-2 = test: Growth inhibition of human SK-MEL-2 cells; type: functional
Malme-3M = test: Growth inhibition of human MALME-3M cells; type: functional
M14 = test: Growth inhibition of human M14 cells; type: functional
SNB-75 = test: Growth inhibition of human SNB75 cells; type: functional
U-251 = test: Growth inhibition of human U251 cells; type: functional
[28] = Growth inhibition of human LOXIMVI cells; type: functional; details: LOX IMVI
[29] = Growth inhibition of human SF539 cells; type: functional; details: SF-539
SNB-19 = test: Growth inhibition of human SNB19 cells; type: functional
SF-268 = test: Growth inhibition of human SF268 cells; type: functional
SW-620 = test: Growth inhibition of human SW620 cells; type: functional
HT-29 [30] = test: Growth inhibition of human HT-29 cells; type: functional
KM12 = test: Growth inhibition of human KM12 cells; type: functional
[31] = Growth inhibition of human HCT15 cells; type: functional; details: HCT-15
HCT-116 = test: Growth inhibition of human HCT116 cells; type: functional
[32] = Growth inhibition of human HCC2998 cells; type: functional; details: HCC 2998
COLO 205 = test: Growth inhibition of human COLO205 cells; type: functional
NCI-H322M = test: Growth inhibition of human NCI-H322M cells; type: functional
NCI-H460 = test: Growth inhibition of human NCI-H460 cells; type: functional
NCI-H522 = test: Growth inhibition of human NCI-H522 cells; type: functional
NCI-H226 = test: Growth inhibition of human NCI-H226 cells; type: functional
NCI-H23 = test: Growth inhibition of human NCI-H23 cells; type: functional
[33] = Growth inhibition of human EKVX cells; type: functional
HOP-62 = test: Growth inhibition of human HOP62 cells; type: functional
[34] = Growth inhibition of human HOP92 cells; type: functional; details: HOP-92
SR = test: Growth inhibition of human SR cells; type: functional
A549 = test: Growth inhibition of human A549/ATCC cells; type: functional
RPMI-8226 = test: Growth inhibition of human RPMI8226 cells; type: functional
[35] = Growth inhibition of human MOLT4 cells; type: functional; details: MOLT-4
HL-60(TB) = test: Growth inhibition of human HL-60(TB) cells; type: functional
CCRF-CEM = test: Growth inhibition of human CCRF-CEM cells; type: functional

COc1cc(C(=O)N2N=C(c3ccccn3)CC2c2cc(OC)c(OC)c(OC)c2)cc(OC)c1OC (configuration not stated)
IC50 (MDA-MB-231 [1]): 11400 nM
IC50 (HT-29 [2]): 22500 nM

COc1cc2c(c(OC)c1OC)-c1ccc(OC)c(=O)cc1[C@@H](NC(C)=O)CC2 [COLCHICINE]
inhibition (HT-29 [3]): Active
IC50 (MDA-MB-231 [1]): 8 nM
IC50 (HT-29 [2]): 8 nM

O=C(N1N=C(c2ccccn2)CC1c1ccccc1)C(F)(F)F (configuration not stated)
IC50 (MDA-MB-231 [1]): > 500000 nM
IC50 (HT-29 [2]): > 500000 nM

CN1N=C(c2ccccn2)CC1c1ccccc1 (configuration not stated)
IC50 (MDA-MB-231 [1]): 135000 nM
IC50 (HT-29 [2]): 116000 nM

COc1cc(/C=C/C(=O)c2ccccn2)cc(OC)c1OC
IC50 (MDA-MB-231 [1]): 9700 nM
IC50 (HT-29 [2]): 9600 nM

O=C(c1ccccc1)N1N=C(c2ccccn2)C[C@H]1c1ccccc1
IC50 (MDA-MB-231 [1]): > 500000 nM
IC50 (HT-29 [2]): > 500000 nM

CC(=O)O[C@H]1C(=O)[C@@]2(C)[C@H]([C@H](OC(=O)c3ccccc3)[C@]3(O)C[C@H](OC(=O)[C@H](O)[C@@H](NC(=O)c4ccccc4)c4ccccc4)C(C)=C1C3(C)C)[C@]1(OC(C)=O)CO[C@@H]1C[C@@H]2O
Activity (Tubulin (Homo sapiens) [4]): Active

COc1cc(C2CC(c3ccccn3)=NN2C(C)=O)cc(OC)c1OC (configuration not stated)
IC50 (MDA-MB-231 [1]): 52500 nM
IC50 (HT-29 [2]): > 500000 nM

CC(=O)N1N=C(c2ccccn2)CC1c1ccccc1 (configuration not stated)
IC50 (MDA-MB-231 [1]): 294000 nM
IC50 (HT-29 [2]): 161000 nM

CNC(=S)N1N=C(c2ccccn2)C[C@H]1c1ccccc1
IC50 (MDA-MB-231 [1]): 20700 nM
IC50 (HT-29 [2]): 25600 nM

COc1cc(C(=O)N2N=C(c3ccccn3)C[C@@H]2c2ccccc2)cc(OC)c1OC
inhibition (HT-29 [5]): Active
inhibition (Tubulin (Homo sapiens) [6]): Active
Activity (HT-29 [7]): 94.8%
Activity (HT-29 [8]): 2%
Activity (HT-29 [9]): 2.3%
Activity (HT-29 [10]): 49.7%
Activity (HT-29 [11]): 10.3%
Activity (HT-29 [12]): 38.5%
Activity (HT-29 [13]): 88.8%
Activity (HT-29 [14]): 2.8%
Activity (HT-29 [15]): 7.9%
GI50 (MDA-MB-468): 417 nM
GI50 [16]: 5130 nM
GI50 (T47D): > 100000 nM
GI50 (MCF7): 324 nM
GI50 (MDA-MB-231 [17]): 989 nM
GI50 [18]: 9180 nM
GI50 (PC-3): > 100000 nM
GI50 (DU-145): 4260 nM
GI50 (TK-10): > 100000 nM
GI50 [19]: 5010 nM
GI50 (CAKI-1): 493 nM
GI50 [20]: 1030 nM
GI50 (SN12C): 3530 nM
GI50 (A498): 943 nM
GI50 (ACHN): 4290 nM
GI50 (SK-OV-3): 762 nM
GI50 (786-0): 1540 nM
GI50 [21]: 4010 nM
GI50 [22]: 3280 nM
GI50 [23]: 519 nM
GI50 [24]: 719 nM
GI50 [25]: 5950 nM
GI50 [26]: 541 nM
GI50 (IGROV-1): 7130 nM
GI50 (SK-MEL-28): 1510 nM
GI50 (SK-MEL-5): 432 nM
GI50 [27]: > 100000 nM
GI50 (MDA-MB-435): 273 nM
GI50 (SK-MEL-2): 699 nM
GI50 (Malme-3M): > 100000 nM
GI50 (M14): 801 nM
GI50 (SNB-75): 277 nM
GI50 (U-251): 868 nM
GI50 [28]: 1130 nM
GI50 [29]: 1060 nM
GI50 (SNB-19): 1890 nM
GI50 (SF-268): 33400 nM
GI50 (SW-620): 567 nM
GI50 (HT-29 [30]): 431 nM
GI50 (KM12): 711 nM
GI50 [31]: 848 nM
GI50 (HCT-116): 586 nM
GI50 [32]: 2320 nM
GI50 (COLO 205): 585 nM
GI50 (NCI-H322M): > 100000 nM
GI50 (NCI-H460): 505 nM
GI50 (NCI-H522): 688 nM
GI50 (NCI-H226): 1330 nM
GI50 (NCI-H23): 3450 nM
GI50 [33]: > 100000 nM
GI50 (HOP-62): 1820 nM
GI50 [34]: > 100000 nM
GI50 (SR): 415 nM
GI50 (A549): 952 nM
GI50 (RPMI-8226): 66300 nM
GI50 [35]: 4460 nM
GI50 (HL-60(TB)): 747 nM
GI50 (CCRF-CEM): 2080 nM
IC50 (MDA-MB-231 [1]): 690 nM
IC50 (HT-29 [2]): 2530 nM

NC(=S)N1N=C(c2ccccn2)C[C@H]1c1ccccc1
IC50 (MDA-MB-231 [1]): 140000 nM
IC50 (HT-29 [2]): 350000 nM

COc1cc(C2CC(c3ccccn3)=NN2c2ccccc2)cc(OC)c1OC (configuration not stated)
IC50 (MDA-MB-231 [1]): 4360 nM
IC50 (HT-29 [2]): 26200 nM

c1ccc(C2CC(c3ccccn3)=NN2c2ccccc2)cc1 (configuration not stated)
IC50 (MDA-MB-231 [1]): 60200 nM
IC50 (HT-29 [2]): 53800 nM
